The source of these data is BindingDB's records for doi:10.1021/jm00124a018 (Institute of Cancer Research, 1989).

The target in this experiment is Thymidylate synthase (Mus musculus, L1210). As to the kind of experiment: Inhibitory concentration of compound to inhibit Thymidylate synthase (TS) in L1210 cells at conc. of 200 uM.

The term IC50 denotes the point on the concentration scale where inhibition reaches its midpoint. A low value points to inhibition by little substance. In the case of `CCN(Cc1ccc2nc(N)[nH]c(=O)c2c1)c1ccc(C(=O)NC(CCC(=O)O)C(=O)O)cc1` (configuration not stated), inhibition was half-maximal at 60 nM (IC50).

For the molecule `CCN(Cc1ccc2nc[nH]c(=O)c2c1)c1ccc(C(=O)NC(CCC(=O)O)C(=O)O)cc1` (configuration not stated), the IC50 came out at 520 nM.
